Here are results for two compounds from article PMC9823097, “Dysregulation of PRMT5 in chronic lymphocytic leukemia promotes progression with high risk of Richter’s transformation” (Nature Communications, 2023).

Where “and” joins values, the source holds several entries; their conditions need not be identical. Identical values can stand only once.

One assay relates to PRMT5 in Mec-1 cell line. Kind of assay: Cas9-mediated doxycycline-inducible knockout of PRMT5, Mec-1 proliferation. The conditions noted are these: +doxy. It is filed as cell-based. The source says: Proteins extracted from whole-cell lysates were resolved by SDS-PAGE and transferred on nitrocellulose membrane as previously described. CpG685 oligonucleotide was obtained from the OSU Cytogenetics Core Lab. Antibodies used for immunoblots included anti-human PRMT5 (Abcam #ab109451), GAPDH (Millipore Sigma #MAB374), SDMA (Cell Signaling Technology #13222), c-Myc (Cell Signaling Technology #5605S), and β-Actin (Cell Signaling Technology #4967S). Cas9-mediated doxycycline-inducible knockout of PRMT5 utilized a targeted sgRNA (guide sequence: […], PAM: GGG).

For assay [1], the system named is BRD4 occupancy at the PRMT5 locus. As to the kind of experiment: ChIP-seq of H3K27Ac and BRD4 binding at the PRMT5 locus. The class given is cell-based. The conditions noted are these: vehicle, CpG, or PLX51107 treatment.
The test system of assay [2] is PRMT5 expression in CLL cells. Kind of assay: PRMT5 mRNA and protein expression in CpG-stimulated CLL cells upon BRD4 inhibition. It is filed as cell-based, human.

Regarding `C[C@H]1c2cccc(O)c2C(O)=C2C(=O)[C@]3(O)C(O)=C(C(N)=O)C(=O)[C@@H](N(C)C)[C@@H]3[C@@H](O)[C@@H]21` [+doxy], the “Rep. 1 Live cells/mL” value is 170000 cells/mL in the assay with PRMT5 in Mec-1 cell line (1 days treated); 387000 cells/mL in the assay with PRMT5 in Mec-1 cell line (2 days treated); 686000 cells/mL in the assay with PRMT5 in Mec-1 cell line (3 days treated); 991000 cells/mL with PRMT5 in Mec-1 cell line (4 days treated); 827000 cells/mL in the assay on PRMT5 in Mec-1 cell line (5 days treated); 1180000 cells/mL in the assay with PRMT5 in Mec-1 cell line (6 days treated). Moreover, the “Rep. 2 Live cells/mL” value with PRMT5 in Mec-1 cell line (1 days treated) was 158000 cells/mL; in the assay with PRMT5 in Mec-1 cell line (2 days treated), 352000 cells/mL; in the assay with PRMT5 in Mec-1 cell line (3 days treated) it was 721000 cells/mL; with PRMT5 in Mec-1 cell line (4 days treated), 944000 cells/mL; with PRMT5 in Mec-1 cell line (5 days treated) it was 862000 cells/mL; in the assay with PRMT5 in Mec-1 cell line (6 days treated) it was 1280000 cells/mL.

As for `Cc1noc(C)c1-c1cnc2c(-c3ccc(C(=O)O)cc3)cn([C@@H](C)c3ccccn3)c2c1` [PLX51107], the “BRD4 occupancy at the PRMT5 locus enhancer” value in assay [1] is reported as “lost”. The PRMT5 protein expression entry in assay [2] (72h 10µM PLX51107, CLL cells stimulated with 21.7 µg/mL CpG, n=5 patients) was “Reduced”. Further, the “PRMT5 mRNA expression” value in assay [2] (72h 10µM PLX51107, CLL cells stimulated with 21.7 µg/mL CpG, n=8 patients) is reported as “Reduced”. Besides, in assay [2] (individual samples, Supplemental Figure 7C), the “PRMT5 Relative Expression (2-ΔCt)” value was 1.507 and 1.2928 and 1.349 and 0.5743 and 1.232 and 0.9553 and 1.659 and 0.935.
